# Several values for one entry are separate records, joined by “and”; a condition that tells them apart may be missing. Equal values may be shown once.
# System: BDF1 mice, Adenocarcinoma 755 s.c., tumor weight T/C
# Experiment: NCI In Vivo Anticancer Drug Screen. Data for tumor model Adenocarcinoma 755 (subcutaneous) in B6D2F1 (BDF1) mice
# Conditions: endpoint: mean tumor weight, higher = larger tumour
# Procedure, shortened: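 In vivo antitumor screen on a transplantable tumor line. Result equals the measure in compound-treated animals divided by the same measure in vehicle controls.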
# [1] = dose: 15.0 mg/kg/injection, schedule: Q01DX011 (ip), vehicle: methylcellulose (MC)
# [2] = dose: 31.0 mg/kg/injection, schedule: Q01DX011 (ip), vehicle: methylcellulose (MC)
# [3] = dose: 250.0 mg/kg/injection, schedule: Q01DX011 (ip), vehicle: methylcellulose (MC)
# [4] = dose: 62.0 mg/kg/injection, schedule: Q01DX011 (ip), vehicle: methylcellulose (MC)
# [5] = dose: 125.0 mg/kg/injection, schedule: Q01DX011 (ip), vehicle: methylcellulose (MC)
# [6] = dose: 12.5 mg/kg/injection, schedule: Q01DX011 (ip), vehicle: methylcellulose (MC)
# [7] = dose: 25.0 mg/kg/injection, schedule: Q01DX011 (ip), vehicle: methylcellulose (MC)
smiles,measurement,setting,value
CN(C)[C@@H]1C(=O)C(C(=O)NCc2nc3[nH]cnc(=S)c3[nH]2)=C(O)[C@@]2(O)C(=O)C3=C(O)c4c(O)cccc4[C@@](C)(O)[C@H]3C[C@@H]12,T/C,"dose: 1.0 mg/kg/injection, schedule: Q01DX011 (ip), vehicle: carboxymethylcellulose (CMC)",64 % of control
same,T/C,"dose: 2.0 mg/kg/injection, schedule: Q01DX011 (ip), vehicle: carboxymethylcellulose (CMC)",44 % of control
same,T/C,"dose: 3.0 mg/kg/injection, schedule: Q01DX011 (ip), vehicle: carboxymethylcellulose (CMC)",78 % of control
same,T/C,"dose: 4.0 mg/kg/injection, schedule: Q01DX011 (ip), vehicle: carboxymethylcellulose (CMC)",62 % of control
same,T/C,"dose: 14.0 mg/kg/injection, schedule: Q01DX011 (ip), vehicle: carboxymethylcellulose (CMC)",1 % of control and 3 % of control and 5 % of control
same,T/C,"dose: 28.0 mg/kg/injection, schedule: Q01DX011 (ip), vehicle: carboxymethylcellulose (CMC)",1 % of control and 2 % of control
same,T/C,"dose: 56.0 mg/kg/injection, schedule: Q01DX011 (ip), vehicle: carboxymethylcellulose (CMC)",6 % of control
CSc1ncc(Br)c(=O)[nH]1,T/C,[1],81 % of control
same,T/C,[2],72 % of control
same,T/C,[3],56 % of control
CC1CCOS(=O)O1 (stereo not drawn),T/C,"dose: 20.0 mg/kg/injection, schedule: Q01DX011 (ip), vehicle: carboxymethylcellulose (CMC)",76 % of control
same,T/C,"dose: 40.0 mg/kg/injection, schedule: Q01DX011 (ip), vehicle: carboxymethylcellulose (CMC)",18 % of control
CCCCNc1nc(SCc2ccc(Cl)cc2Cl)ncc1C,T/C,[1],78 % of control
same,T/C,[2],91 % of control
same,T/C,[4],84 % of control
same,T/C,[5],72 % of control
same,T/C,[3],60 % of control
CN1CC(=O)N=C1N,T/C,"dose: 250.0 mg/kg/injection, schedule: Q#A X022 (ip), vehicle: water",47 % of control
same,T/C,"dose: 375.0 mg/kg/injection, schedule: Q#A X022 (ip), vehicle: water",88 % of control
same,T/C,"dose: 500.0 mg/kg/injection, schedule: Q#A X022 (ip), vehicle: water",36 % of control
same,T/C,"dose: 750.0 mg/kg/injection, schedule: Q#A X022 (ip), vehicle: water",67 % of control
same,T/C,"dose: 1250.0 mg/kg/injection, schedule: Q#A X022 (ip), vehicle: water",72 % of control
same,T/C,"dose: 1500.0 mg/kg/injection, schedule: Q#A X022 (ip), vehicle: water",68 % of control
CSc1nc(N)nc2c1ncn2C1OC(CO)C(O)C1O (stereo not drawn),T/C,"dose: 8.2 mg/kg/injection, schedule: Q01DX011 (ip), vehicle: carboxymethylcellulose (CMC)",82 % of control
same,T/C,"dose: 16.5 mg/kg/injection, schedule: Q01DX011 (ip), vehicle: carboxymethylcellulose (CMC)",53 % of control
same,T/C,"dose: 33.0 mg/kg/injection, schedule: Q01DX011 (ip), vehicle: carboxymethylcellulose (CMC)",20 % of control
same,T/C,"dose: 66.0 mg/kg/injection, schedule: Q01DX011 (ip), vehicle: carboxymethylcellulose (CMC)",9 % of control
same,T/C,"dose: 66.25 mg/kg/injection, schedule: Q01DX011 (ip), vehicle: methylcellulose (MC)",9 % of control
same,T/C,"dose: 112.5 mg/kg/injection, schedule: Q01DX011 (ip), vehicle: methylcellulose (MC)",4 % of control
Cn1cnc2nc[nH]c2c1=N,T/C,"dose: 30.0 mg/kg/injection, schedule: Q01DX011 (ip), vehicle: saline",115 % of control
same,T/C,"dose: 60.0 mg/kg/injection, schedule: Q01DX011 (ip), vehicle: saline",93 % of control
same,T/C,"dose: 120.0 mg/kg/injection, schedule: Q01DX011 (ip), vehicle: saline",74 % of control
same,T/C,"dose: 240.0 mg/kg/injection, schedule: Q01DX011 (ip), vehicle: saline",109 % of control
CCN(CC)CCNc1ccc(C)c2sc3ccccc3c(=O)c12,T/C,[6],73 % of control
same,T/C,"dose: 12.93 mg/kg/injection, schedule: Q01DX011 (ip), vehicle: carboxymethylcellulose (CMC)",98 % of control
same,T/C,[7],51 % of control
same,T/C,"dose: 25.87 mg/kg/injection, schedule: Q01DX011 (ip), vehicle: carboxymethylcellulose (CMC)",117 % of control
same,T/C,"dose: 25.88 mg/kg/injection, schedule: Q01DX011 (ip), vehicle: carboxymethylcellulose (CMC)",73 % of control
same,T/C,"dose: 32.35 mg/kg/injection, schedule: Q01DX011 (ip), vehicle: carboxymethylcellulose (CMC)",75 % of control
same,T/C,"dose: 43.13 mg/kg/injection, schedule: Q01DX011 (ip), vehicle: carboxymethylcellulose (CMC)",49 % of control
same,T/C,"dose: 50.0 mg/kg/injection, schedule: Q01DX011 (ip), vehicle: methylcellulose (MC)",35 % of control
same,T/C,"dose: 51.75 mg/kg/injection, schedule: Q01DX011 (ip), vehicle: carboxymethylcellulose (CMC)",44 % of control and 46 % of control and 59 % of control
same,T/C,"dose: 59.1 mg/kg/injection, schedule: Q01DX011 (ip), vehicle: carboxymethylcellulose (CMC)",15 % of control
same,T/C,"dose: 64.7 mg/kg/injection, schedule: Q01DX011 (ip), vehicle: carboxymethylcellulose (CMC)",23 % of control
same,T/C,"dose: 82.8 mg/kg/injection, schedule: Q01DX011 (ip), vehicle: carboxymethylcellulose (CMC)",7 % of control
same,T/C,"dose: 100.0 mg/kg/injection, schedule: Q01DX011 (ip), vehicle: methylcellulose (MC)",1 % of control
same,T/C,"dose: 103.5 mg/kg/injection, schedule: Q01DX011 (ip), vehicle: carboxymethylcellulose (CMC)",5 % of control
same,T/C,"dose: 1617.5 micrograms/kg/injection, schedule: Q01DX011 (ip), vehicle: carboxymethylcellulose (CMC)",70 % of control
same,T/C,"dose: 3235.0 micrograms/kg/injection, schedule: Q01DX011 (ip), vehicle: carboxymethylcellulose (CMC)",38 % of control
same,T/C,"dose: 6470.0 micrograms/kg/injection, schedule: Q01DX011 (ip), vehicle: carboxymethylcellulose (CMC)",15 % of control
same,T/C,"dose: 8087.0 micrograms/kg/injection, schedule: Q01DX011 (ip), vehicle: carboxymethylcellulose (CMC)",72 % of control
Cn1cnc(=N)c2[nH]cnc21,T/C,"dose: 30.0 mg/kg/injection, schedule: Q01DX011 (ip), vehicle: carboxymethylcellulose (CMC)",97 % of control
same,T/C,"dose: 60.0 mg/kg/injection, schedule: Q01DX011 (ip), vehicle: carboxymethylcellulose (CMC)",93 % of control
same,T/C,"dose: 120.0 mg/kg/injection, schedule: Q01DX011 (ip), vehicle: carboxymethylcellulose (CMC)",73 % of control
same,T/C,"dose: 240.0 mg/kg/injection, schedule: Q01DX011 (ip), vehicle: carboxymethylcellulose (CMC)",93 % of control
c1ccc2c(c1)ccc1cc3c(ccc4ccccc43)cc12,T/C,[6],24 % of control
same,T/C,[7],44 % of control
same,T/C,"dose: 25.0 mg/kg/injection, schedule: Q01DX011 (ip), vehicle: other",60 % of control
same,T/C,"dose: 50.0 mg/kg/injection, schedule: Q01DX011 (ip), vehicle: other",42 % of control
same,T/C,"dose: 100.0 mg/kg/injection, schedule: Q01DX011 (ip), vehicle: other",36 % of control
same,T/C,"dose: 400.0 mg/kg/injection, schedule: Q01DX011 (ip), vehicle: methylcellulose (MC)",24 % of control and 25 % of control
same,T/C,"dose: 600.0 mg/kg/injection, schedule: Q01DX011 (ip), vehicle: methylcellulose (MC)",31 % of control
same,T/C,"dose: 600.0 mg/kg/injection, schedule: Q01DX011 (ip), vehicle: other",12 % of control
NNc1nncc2ccccc12,T/C,"dose: 37.5 mg/kg/injection, schedule: Q01DX011 (ip), vehicle: carboxymethylcellulose (CMC)",90 % of control
same,T/C,"dose: 75.0 mg/kg/injection, schedule: Q01DX011 (ip), vehicle: carboxymethylcellulose (CMC)",47 % of control
CC1(C)OC2C(CO)OC(n3cnc4c(SCc5ccccc5)ncnc43)C2O1 (stereo not drawn),T/C,[2],79 % of control
same,T/C,[4],59 % of control
same,T/C,[5],50 % of control
Cn1c(N)cc(=O)[nH]c1=S,T/C,"dose: 3.5 mg/kg/injection, schedule: Q01DX011 (ip), vehicle: methylcellulose (MC)",98 % of control
same,T/C,"dose: 7.0 mg/kg/injection, schedule: Q01DX011 (ip), vehicle: methylcellulose (MC)",40 % of control
same,T/C,[1],65 % of control
same,T/C,"dose: 30.0 mg/kg/injection, schedule: Q01DX011 (ip), vehicle: methylcellulose (MC)",79 % of control
same,T/C,"dose: 60.0 mg/kg/injection, schedule: Q01DX011 (ip), vehicle: methylcellulose (MC)",29 % of control
CO[C@H](C(=O)[C@@H](O)[C@@H](C)O)[C@@H]1Cc2cc3cc(OC4CC(OC5CC(O)C(O)C(C)O5)C(O)C(C)O4)c(C)c(O)c3c(O)c2C(=O)[C@H]1OC1CC(OC2CC(OC3CC(C)(O)C(O)C(C)O3)C(O)C(C)O2)C(O)C(C)O1 (stereo partly drawn),T/C,"dose: 0.25 mg/kg/injection, schedule: Q01DX011 (ip), vehicle: saline",59 % of control
same,T/C,"dose: 0.25 mg/kg/injection, schedule: Q01DX011 (ip), vehicle: water",72 % of control
same,T/C,"dose: 0.5 mg/kg/injection, schedule: Q01DX011 (ip), vehicle: saline",57 % of control
same,T/C,"dose: 0.75 mg/kg/injection, schedule: Q01DX011 (ip), vehicle: water",16 % of control
same,T/C,"dose: 1.0 mg/kg/injection, schedule: Q01DX011 (ip), vehicle: saline",11 % of control
